Tests used:
Assay type in all cases: binding
P2RY12 = biological target: T1, P2RY12 (Homo sapiens, UniProt Q9H244); experiment: NanoBRET screen HiBiT-P2RY12 in HEK293
T1 construct: purchased Promega (in-house HiBiT-GPCR construct library, NanoBRET)
Procedure: (§1) Each tracer candidate was screened across the entire library of HiBiT-GPCR constructs using NanoBRET as the detection modality. As depicted in Figure 4A, the specificity of interactions was evaluated through decrease in BRET due to competitive displacement of a bound tracer by excess parental compound. Each tracer was analyzed for binding to each HiBiT-GPCR fusion in the absence and in the presence of competing parental compound. Briefly, HEK293 cells were transfected with HiBiT-GPCR constructs diluted into promoterless DNA to reduce expression and maximize translocation to the cell surface. Each tracer candidate was then screened at concentrations of 1 μM and 0.1 μM across cells expressing these fusions. Cells were treated for 1.5 h with tracer either alone or in the presence of 20 μM competing parental compound (i.e., control). BRET was measured upon addition of purified LgBiT and subsequent complementation with HiBiT genetically fused to a GPCR. The specificity of interactions was assessed through a decrease in BRET signal due to competitive displacement of the bound tracer. To further gauge the robustness of these interactions, the fold response over the control (i.e., BRETtracer/BRETcontrol) was calculated. We chose a 1.5-fold response, which translates to ≥7-fold signal over noise as the minimal threshold required to score an interaction as positive. […]. Below we highlight the screening results obtained for our exemplary fluorescent tracers based on Clozapine, Amitriptyline and AZD1283.
(§2) HiBiT-GPCR DNA constructs were diluted in 10 mM Tris pH 8 to a final concentration of 0.01 μg/μL, arrayed in 96-well plates and stored at −20 °C. For transfection, HEK293 cells were suspended in Opti-MEM (without phenol red) supplemented with 2% fetal bovine serum (Seradigm) and 100 units/mL penicillin–streptomycin (Gibco) at a final concentration of 220,000 cells/mL and dispensed into white 96-well plates at 90 μL/well. Subsequent transfections and screens were carried using an Agilent Bravo Automated Liquid Handling Platform. First, the 96-well HiBiT DNA arrays were diluted 25-fold in Opti-MEM (without serum or phenol red) to a final concentration of 0.0004 μg/μL and 20 μL of the diluted DNAs were transferred into new 96-well plates. Next, promoterless carrier DNA (1 μg/μL) was diluted 25-fold (0.04 μg/μL) and then dispensed into the diluted arrays at 20 μL/well. Following brief mixing, Viafect transfection reagent (Promega) diluted 16-fold into Opti-MEM was dispensed into the plates at 40 μL/well. After mixing by pipetting, plates were incubated for 10 min on the pipetting station deck. The DNA-transfection reagent complexes were then added to plates containing cells. To facilitate the screen, 10 μL of DNA-transfection reagent complexes were added in duplicates to the top 4 and bottom 4 rows, resulting in two identical 48-well arrays per plate. Plates with transfected cells were incubated for 18–20 h at 37 °C/5% CO2. A screen of each tracer across the entire library using two different concentrations requires duplicate plates of transfected cells. Depending on the number of tracers being screened, transfections can be scaled up using the same ratios. The next day, for each tracer, four 20× screening solutions in tracer dilution buffer (Promega) were prepared: two duplicates at final concentration of 20 μM and two duplicates at a final concentration of 2 μM. A competing unmodified compound was added to one of each duplicate at a final concentration of 400 μM. The four resulting solutions were diluted 4-fold in Opti-MEM without serum or phenol red to generate 5× solutions (5 µM and 0.5 µM tracer +/− 100 μM competing compound). To screen the library, a BioTek MultiFlo FX liquid dispenser was used to dispense 22.5 µL of tracer solution to the top 4 rows and 22.5 µL tracer + competing compound solution to the 4 bottom rows. Plates were briefly mixed on an orbital shaker and incubated for 1.5 h at room temperature. […]

FPR2 = biological target: T2, FPR2 (Homo sapiens, UniProt P25090); experiment: NanoBRET screen HiBiT-FPR2 in HEK293
T2 construct: purchased Promega (in-house HiBiT-GPCR construct library, NanoBRET)
T2 sequence (P25090 1-351): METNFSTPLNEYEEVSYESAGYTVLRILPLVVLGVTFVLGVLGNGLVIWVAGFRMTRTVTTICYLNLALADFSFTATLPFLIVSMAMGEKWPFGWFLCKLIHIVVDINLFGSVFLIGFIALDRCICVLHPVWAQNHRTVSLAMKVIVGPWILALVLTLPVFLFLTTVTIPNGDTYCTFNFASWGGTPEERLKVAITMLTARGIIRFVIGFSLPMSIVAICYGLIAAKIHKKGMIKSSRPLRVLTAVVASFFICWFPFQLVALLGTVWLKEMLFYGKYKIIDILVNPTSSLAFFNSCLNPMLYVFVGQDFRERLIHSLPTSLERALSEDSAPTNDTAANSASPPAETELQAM
Procedure: as §1, §2

SSTR3 = biological target: T3, SSTR3 (Homo sapiens, UniProt P32745); experiment: NanoBRET screen HiBiT-SSTR3 in HEK293
T3 construct: purchased Promega (in-house HiBiT-GPCR construct library, NanoBRET)
T3 sequence (P32745 whole entry): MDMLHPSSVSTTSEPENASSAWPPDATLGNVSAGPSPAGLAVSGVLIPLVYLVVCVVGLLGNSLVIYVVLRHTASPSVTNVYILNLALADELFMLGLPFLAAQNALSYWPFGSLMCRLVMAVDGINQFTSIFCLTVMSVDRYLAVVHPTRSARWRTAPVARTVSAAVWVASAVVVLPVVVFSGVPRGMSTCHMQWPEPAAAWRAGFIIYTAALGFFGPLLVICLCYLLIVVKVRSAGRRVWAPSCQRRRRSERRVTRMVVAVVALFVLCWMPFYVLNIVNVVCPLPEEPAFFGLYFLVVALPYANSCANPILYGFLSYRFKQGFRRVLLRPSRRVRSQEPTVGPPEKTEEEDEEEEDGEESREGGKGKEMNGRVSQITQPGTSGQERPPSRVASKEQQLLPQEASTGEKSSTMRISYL
Procedure: as §1, §2

PTGFR = biological target: T4, PTGFR (Homo sapiens, UniProt P43088); experiment: NanoBRET screen HiBiT-PTGFR in HEK293
T4 construct: purchased Promega (in-house HiBiT-GPCR construct library, NanoBRET)
T4 sequence (P43088 whole entry): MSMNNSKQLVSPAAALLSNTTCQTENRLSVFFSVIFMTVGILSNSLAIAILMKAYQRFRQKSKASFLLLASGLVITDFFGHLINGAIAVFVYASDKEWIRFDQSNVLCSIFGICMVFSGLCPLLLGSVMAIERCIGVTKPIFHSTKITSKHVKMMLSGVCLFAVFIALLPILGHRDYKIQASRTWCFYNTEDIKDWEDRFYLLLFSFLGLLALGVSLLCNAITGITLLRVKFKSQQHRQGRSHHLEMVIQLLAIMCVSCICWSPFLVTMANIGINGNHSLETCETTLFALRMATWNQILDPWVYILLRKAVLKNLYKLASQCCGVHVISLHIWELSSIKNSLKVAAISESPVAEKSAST
Procedure: as §1, §2

NPBWR1 = biological target: T5, NPBWR1 (Homo sapiens, UniProt P48145); experiment: NanoBRET screen HiBiT-NPBWR1 in HEK293
T5 construct: purchased Promega (in-house HiBiT-GPCR construct library, NanoBRET)
T5 sequence (P48145 1-328): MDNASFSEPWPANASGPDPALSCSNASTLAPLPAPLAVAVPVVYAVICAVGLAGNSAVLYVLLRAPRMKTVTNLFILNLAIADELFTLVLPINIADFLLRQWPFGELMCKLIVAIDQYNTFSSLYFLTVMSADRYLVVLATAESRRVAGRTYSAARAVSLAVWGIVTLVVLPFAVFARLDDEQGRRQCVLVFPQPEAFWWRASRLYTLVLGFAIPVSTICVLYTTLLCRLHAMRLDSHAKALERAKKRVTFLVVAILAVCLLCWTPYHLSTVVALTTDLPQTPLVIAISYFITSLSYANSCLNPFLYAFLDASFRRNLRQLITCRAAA
Procedure: as §1, §2

[1] = tracer at 0.1μM, listed as amitriptyline-b-2-NB590

T1 sequence (Q9H244 whole entry, one chain of several): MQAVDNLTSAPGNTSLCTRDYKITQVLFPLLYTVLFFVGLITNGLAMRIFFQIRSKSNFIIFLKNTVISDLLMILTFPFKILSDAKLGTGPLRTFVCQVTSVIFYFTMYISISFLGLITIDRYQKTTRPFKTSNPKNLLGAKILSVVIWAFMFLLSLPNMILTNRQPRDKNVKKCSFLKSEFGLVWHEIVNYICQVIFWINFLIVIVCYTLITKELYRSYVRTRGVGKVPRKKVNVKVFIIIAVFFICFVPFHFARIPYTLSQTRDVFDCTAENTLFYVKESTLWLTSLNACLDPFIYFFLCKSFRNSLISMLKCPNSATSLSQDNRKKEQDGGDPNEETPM

Compound | NanoBRET Fold Response (P2RY12; P2RY12, tracer 0.1μM) | NanoBRET Fold Response (P2RY12; P2RY12, tracer 1μM) | NanoBRET Fold Response (FPR2; FPR2, tracer 0.1μM) | NanoBRET Fold Response (FPR2; FPR2, tracer 1μM) | NanoBRET Fold Response (SSTR3; SSTR3, tracer 0.1μM) | NanoBRET Fold Response (SSTR3; SSTR3, tracer 1μM) | NanoBRET Fold Response (PTGFR; PTGFR, tracer 0.1μM) | NanoBRET Fold Response (PTGFR; PTGFR, tracer 1μM) | NanoBRET Fold Response (NPBWR1; NPBWR1, tracer 0.1μM) | NanoBRET Fold Response (NPBWR1; NPBWR1, tracer 1μM) | other results
CN1CCN(C2=Nc3cc(Cl)ccc3Nc3ccc(CNC(=O)CCOCCOCCOCCOCCNC(=O)CCc4ccc5n4[B-](F)(F)[N+]4=C(c6ccc[nH]6)C=CC4=C5)cc32)CC1 [Clozapine-b-2-NB590] | – | – | – | – | – | – | – | – | – | – | NanoBRET Fold Response (P2RY12; P2RY12, 0.1μM tracer): 1.00; NanoBRET Fold Response (P2RY12; P2RY12, 1μM tracer): 0.97; NanoBRET Fold Response (FPR2; FPR2, 0.1μM tracer): 0.78; NanoBRET Fold Response (SSTR3; SSTR3, 0.1μM tracer): 0.99; NanoBRET Fold Response (SSTR3; SSTR3, 1μM tracer): 1.02; NanoBRET Fold Response (PTGFR; PTGFR, 0.1μM tracer): 1.02; NanoBRET Fold Response (PTGFR; PTGFR, 1μM tracer): 1.07; NanoBRET Fold Response (NPBWR1; NPBWR1, 0.1μM tracer): 1.05; NanoBRET Fold Response (NPBWR1; NPBWR1, 1μM tracer): 1.07
CN(C)CCC=C1c2ccccc2CCc2ccc(C(=O)NCCNC(=O)CCOCCOCCOCCOCCNC(=O)CCc3ccc4n3[B-](F)(F)[N+]3=C(c5ccc[nH]5)C=CC3=C4)cc21 [Amitriptyline-b-2-NB590] | – | – | – | – | – | – | – | – | – | – | NanoBRET Fold Response (P2RY12; [1]): 0.96; NanoBRET Fold Response (FPR2; [1]): 0.88; NanoBRET Fold Response (FPR2; tracer at 1μM): 0.99; NanoBRET Fold Response (SSTR3; tracer at 0.1μM): 0.95; NanoBRET Fold Response (SSTR3; tracer at 1μM): 0.99; NanoBRET Fold Response (PTGFR; tracer at 0.1μM): 1.01; NanoBRET Fold Response (PTGFR; tracer at 1μM): 1.00; NanoBRET Fold Response (NPBWR1; tracer at 0.1μM): 1.04; NanoBRET Fold Response (NPBWR1; tracer at 1μM): 1.03
CCOC(=O)c1cc(C#N)c(N2CCC(C(=O)NS(=O)(=O)Cc3ccccc3/C=C/C(=O)NCCNC(=O)CCc3ccc4n3[B-](F)(F)[N+]3=C(c5ccc[nH]5)C=CC3=C4)CC2)nc1C [AZD1283-1-NB590] | – | – | – | – | – | – | – | – | – | – | NanoBRET Fold Response (P2RY12; P2RY12, 0.1μM): 3.11; NanoBRET Fold Response (P2RY12; P2RY12, 1μM): 2.18; NanoBRET Fold Response (FPR2; FPR2, 0.1μM): 0.99; NanoBRET Fold Response (FPR2; FPR2, 1μM): 1.04; NanoBRET Fold Response (SSTR3; SSTR3, 0.1μM): 1.07; NanoBRET Fold Response (SSTR3; SSTR3, 1μM): 1.13; NanoBRET Fold Response (PTGFR; PTGFR, 0.1μM): 1.02; NanoBRET Fold Response (PTGFR; PTGFR, 1μM): 1.02; NanoBRET Fold Response (NPBWR1; NPBWR1, 0.1μM): 1.02; NanoBRET Fold Response (NPBWR1; NPBWR1, 1μM): 0.98
CC(C)N(CC[C@H](c1ccccc1)c1cc(CCNC(=O)CCOCCOCCOCCOCCNC(=O)CCc2ccc3n2[B-](F)(F)[N+]2=C(c4ccc[nH]4)C=CC2=C3)ccc1O)C(C)C [Tolterodine-2-NB590] | 0.93 | 0.95 | 1.07 | 0.71 | 1.08 | 1.17 | 0.84 | 0.94 | 1.26 | 0.94 | –
CC(C)N(CC[C@H](c1ccccc1)c1cc(CCNC(=O)c2ccc(CNC(=O)CCc3ccc4n3[B-](F)(F)[N+]3=C(c5ccc[nH]5)C=CC3=C4)cc2)ccc1O)C(C)C [Tolterodine-BZ-NB590] | 1.08 | 0.91 | 0.95 | 0.95 | 1.01 | 1.04 | 0.99 | 1.01 | 1.00 | 1.01 | –
O=C(CCOCCOCCOCCOCCNC(=O)CCc1ccc2n1[B-](F)(F)[N+]1=C(c3ccc[nH]3)C=CC1=C2)NCCCN1CCN(C2=Nc3ccccc3Oc3ccc(Cl)cc32)CC1 [Loxapine-a-2-NB590] | 0.99 | 0.84 | 0.81 | 0.85 | 1.01 | 1.25 | 1.03 | 1.02 | 1.02 | 0.93 | –
CN1CCN(C2=Nc3cc(Cl)ccc3N(CC(=O)NCCOCCOCCOCCOCCNC(=O)CCc3ccc4n3[B-](F)(F)[N+]3=C(c5ccc[nH]5)C=CC3=C4)c3ccccc32)CC1 [Clozapine-c-2-NB590] | – | – | – | – | – | – | – | – | – | – | NanoBRET Fold Response (P2RY12; P2RY12, 0.1μM tracer): 0.99; NanoBRET Fold Response (P2RY12; P2RY12, 1μM tracer): 0.95; NanoBRET Fold Response (FPR2; FPR2, 0.1μM tracer): 1.00; NanoBRET Fold Response (FPR2; FPR2, 1μM tracer): 0.89; NanoBRET Fold Response (SSTR3; SSTR3, 0.1μM tracer): 0.95; NanoBRET Fold Response (SSTR3; SSTR3, 1μM tracer): 1.02; NanoBRET Fold Response (PTGFR; PTGFR, 0.1μM tracer): 1.00; NanoBRET Fold Response (PTGFR; PTGFR, 1μM tracer): 1.10; NanoBRET Fold Response (NPBWR1; NPBWR1, 0.1μM tracer): 0.97; NanoBRET Fold Response (NPBWR1; NPBWR1, 1μM tracer): 1.00
CN(C)CCC=C1c2ccccc2CCc2ccc(C(=O)NCCNC(=O)CCOCCOCCOCCOCCNC(=O)CCc3ccc4n3[B-](F)(F)[N+]3=C(c5ccc[nH]5)C=CC3=C4)cc21 [Amitriptyline-a-2-NB590] | – | – | – | – | – | – | – | – | – | – | NanoBRET Fold Response (P2RY12; tracer at 0.1μM): 1.14; NanoBRET Fold Response (P2RY12; tracer at 1μM): 0.93; NanoBRET Fold Response (FPR2; tracer at 0.1μM): 0.96; NanoBRET Fold Response (FPR2; tracer at 1μM): 1.05; NanoBRET Fold Response (SSTR3; tracer at 0.1μM): 1.05; NanoBRET Fold Response (SSTR3; tracer at 1μM): 1.05
Cc1nc2n(c(=O)c1CCN1CCC(c3noc4cc(F)ccc34)CC1)CCCC2OC(=O)NCCOCCOCCOCCOCCNC(=O)CCc1ccc2n1[B-](F)(F)[N+]1=C(c3ccc[nH]3)C=CC1=C2 (centres unmarked) [Risperidone-2-NB590] | 1.05 | 0.95 | 0.94 | 0.95 | 0.92 | 0.99 | 1.00 | 1.02 | 1.07 | 1.06 | –
COc1ccccc1N1CCN(CCCCN2C(=O)c3ccc(CNC(=O)CCOCCOCCOCCOCCNC(=O)CCc4ccc5n4[B-](F)(F)[N+]4=C(c6ccc[nH]6)C=CC4=C5)cc3C2=O)CC1 [NAN-190-2-NB590] | – | – | 0.56 | 1.20 | 1.00 | 1.05 | 1.00 | 1.00 | 1.02 | – | –
CN(CCC=C1c2ccccc2CCc2ccccc21)C(=O)CCOCCOCCOCCOCCNC(=O)CCc1ccc2n1[B-](F)(F)[N+]1=C(c3ccc[nH]3)C=CC1=C2 [Amitriptyline-e-2-NB590] | – | – | – | – | – | – | – | – | – | – | NanoBRET Fold Response (P2RY12; tracer at 1μM): 1.05

— article PMC8151276, “An Integrated Approach toward NanoBRET Tracers for Analysis of GPCR Ligand Engagement” (Molecules, 2021)
